Consider one compound from patent US20110191897A1, “Plants Tolerant to HPPD Inhibitor Herbicides” (Bayer CropScience AG, priority 2009, published 2011).

“And” between values parts separate entries of the source, which are not always exact repeats. Equal entries are not always repeated.

For experiment [1], the system named is T1 tobacco plants with Arabidopsis HPPD. As to the kind of experiment: Glasshouse spray trial, herbicidal damage. Format: in vivo, Nicotiana tabacum. Particulars: 100 gAl/ha, 7DAT. As to the method:
(§1) T0 Tobacco plants containing either the gene from Arabidopsis coding for HPPD or the gene FMP37e from Blepharisma japonicum coding for FMP37 HPPD, mentioned above (Example 3), were transferred to the glasshouse (28/20° C.), to develop further and produce seeds. Those seeds were harvested and put on soil (ED73 mixed with sand and osmocote Pro) to germinate in the glasshouse (28/20° C.). Three to four weeks later, plantlets were transferred to single pots containing the soil mentioned above. Two weeks later, plants of a size 4-6 cm diameter were sprayed with either • tembotrione at 100 Al/ha prepared from a WP20 (wettable powder 20%) formulation supplemented with ammonium sulfate and methyl ester raps oil, or • isoxaflutole at 100 Al/ha prepared from a WP20 formulation supplemented with ammonium sulfate and methyl ester raps oil, or • bicyclopyrone at 100 gAl/ha prepared from a WP20 formulation supplemented with ammonium sulfate and methyl ester raps oil, or • “blind formulation” made from a WP20 formulation without active ingredient (Al) supplemented with ammonium sulfate and methyl ester raps oil, and were then transferred to a growth chamber with adequate light conditions (20000Lux).

In experiment [2] the test system is T1 tobacco plants with FMP37e coding for the HPPD FMP37. Nature of the experiment: Glasshouse spray trial, herbicidal damage. The format is in vivo, Nicotiana tabacum. The following applies: 100 gAl/ha, 7DAT. As to the method: as §1
In experiment [3] the test system is transgenic soybean shoots (FMP37). As to the kind of experiment: Soybean shoot greening on isoxaflutole selection. Particulars: isoxaflutole as selection marker. The format is in vivo. An excerpt:
(§2) Soybean transformation is achieved using methods well known in the art, such as the one described using the Agrobacterium tumefaciens mediated transformation soybean half-seed explants described by Paz et al. (2006, Plant cell Rep. 25:206). Transformants were identified using Isoxaflutole as selection marker. The appearance of green shoots was observed, and documented as an indicator of tolerance to the herbicide isoxaflutole.

A further experiment deals with wild-type soybean shoots. As to the kind of experiment: Soybean shoot greening on isoxaflutole selection. The following applies: same amount of isoxaflutole. Format: in vivo.
From the text: as §2

In the case of `CS(=O)(=O)c1cc(C(F)(F)F)ccc1C(=O)c1cnoc1C1CC1` [Isoxaflutole, (5-cyclopropyl-4-isoxazolyl)[2-(methylsulfonyl)-4-(trifluoromethyl)phenyl]methanone], the “% injury” value was 99% in experiment [1] (line 252, individual plants); 98% and 99% and 100% (4×) in experiment [1] (line 327, individual plants); 30% (4×) and 50% in experiment [2] (line 113, individual plants); 40% in experiment [2] (line 207, individual plants). Further, the “share of transgenic tested shoots showing normal greening” value in experiment [3] is 1.5%. Further, in the experiment on wild-type soybean shoots, the appearance of shoots entry is on record as “entirely bleached”.
